Measured values: patent US20050070500A1, “Method of modulating release of saccharides and uses thereof” (priority 2001, published 2005)
Like-named read-outs stand apart in the source and are kept apart here.

Legend:
[1] = humans, cited from earlier work
in vivo = conditions: male, beagle, dog
Source text: This study was undertaken to determine the safety of Products X and Y, and to determine the pharmacokinetic profiles of Products X, Y, and a commercially available oral glucosamine formulation (Glucosamine) following a single oral and intravenous administration to beagle dogs. The pharmacokinetic profiles were examined for indications of sustained or slow release of glucosamine by Products X and Y.
A total of nine (9) male Beagle dogs were used during this study. The animals were assigned to three treatment groups of 3 animals/group. Group 1 received low dose Products X, Y and Glucosamine by oral administration on Days 1, 8 and 15, respectively. Group 2 animals received high dose Products X and Y by oral administration on Days 1 and 8, respectively, and Group 3 animals received low dose Products X and Y by intravenous injection on Days 1 and 8, respectively. Low and high dose animals were administered nominal dose levels of 21.4 mg/kg and 214 mg/kg, respectively. These levels approximated 1× and 10× the standard daily oral glucosamine consumption (1500 mg) for an average human (70 kg standard body weight). The commercial glucosamine was assumed to contain 100% active ingredient.
The following parameters were recorded throughout the study: mortality, clinical signs, body weight and clinical pathology (hematology, coagulation and clinical chemistry). Serial blood samples were collected from all animals for pharmacokinetic profiling following each dosing.
Samples were collected via the jugular vein, at: 0 (pre-dose), 15, 30, 60, 120 minutes post-dose. A 5 minute post-dose sample was included for Group 3.

[2] = dogs, cited from earlier work
[3] = subcutaneous; patient not affected by ACTH or Prednisone; several weeks of treatment; cited from earlier work

N[C@H]1C(O)O[C@H](CO)[C@@H](O)[C@@H]1O (stereo partly shown) [Glucosamine, glucosamine]
glucosamine found in urine ([1]; after 144 hours): ~11% | gastrointestinal absorption [1]: ~90% | time of peak serum glucosamine level post-dose (in vivo): 60 min | AUC (in vivo; po, 21.4 mg/kg): 1650 ng·h/mL | concentration at 120 minutes (in vivo; po, 21.4 mg/kg): 533 ± 188 ng/mL | ratio of glucosamine delivered into the serum (oral glucosamine = 100) (in vivo; po, 21.4 mg/kg): 100 | group mean serum glucosamine level at 120 minutes post-dose (in vivo; po, 21.4 mg/kg, 120 minutes): 533 ng/mL | glucosamine found in urine ([2]; after 144 hours): about 10% | gastrointestinal absorption [2]: about 87%

Cl.N[C@H]1C(O)O[C@H](CO)[C@@H](O)[C@@H]1O (stereo partly drawn) [D-glucosamine-HCl]
symptoms of Crohn's Disease [3]: symptoms stopped
